Read-outs that look alike come from different tables or passages of the source.

Format in all cases: cell-based
One data set has as its system OVCAR-3. Briefly: NCI in vitro DTP human cell line screen, OVCAR-3. As to conditions: Ovarian Cancer, 1.00E−5 Molar. Here is the method:
(§1) Then, a cell toxicity assay of the cancer lines made by National Cancer Institute will be discussed as follows. The cell toxicity assay is performed by choosing ten compounds (existing certification numbers) from the 59 compounds disclosed in the present invention first.

In a further data set the test system is HS 578-T. Briefly: NCI in vitro DTP human cell line screen, HS 578-T. As to conditions: Breast Cancer, 1.00E−5 Molar. Here is the method:
as §1

The next data set deals with MDA-MB-231/ATCC. The data set can be described thus: NCI in vitro DTP human cell line screen, MDA-MB-231/ATCC. As to conditions: Breast Cancer, 1.00E−5 Molar. The procedure: as §1
The next data set deals with HCT-15. Briefly: NCI in vitro DTP human cell line screen, HCT-15. As to conditions: Colon Cancer, 1.00E−5 Molar. Here is the method:
as §1

In a further data set the test system is CCRF-CEM. Briefly: NCI in vitro DTP human cell line screen, CCRF-CEM. As to conditions: Leukemia, 1.00E−5 Molar. Here is the method:
as §1

The next data set deals with IGROV1. Briefly: NCI in vitro DTP human cell line screen, IGROV1. As to conditions: Ovarian Cancer, 1.00E−5 Molar. Here is the method:
as §1

Data set [1] can be described thus: MTT assay, HEL299 fibroblast. As to conditions: human. The source says:
(§2) Please refer to FIG. 4C, various cell viabilities of the HEL299 cell lines can be obtained through the MTT assay while the compounds No. 1˜30 are used to treat HEL299 cell lines, wherein HEL299 cell lines are fibroblast.
A general note: Tetrazolium assays rely on reduction of a dye to a coloured formazan, in cell work by metabolically active cells.

Another data set deals with MDA-MB-468. Briefly: NCI in vitro DTP human cell line screen, MDA-MB-468. As to conditions: Breast Cancer, 1.00E−5 Molar. Here is the method: as §1
The test system of another data set is HCC-2998. The data set can be described thus: NCI in vitro DTP human cell line screen, HCC-2998. As to conditions: Colon Cancer, 1.00E−5 Molar. The procedure: as §1
The next data set relates to OVCAR-5. Briefly: NCI in vitro DTP human cell line screen, OVCAR-5. As to conditions: Ovarian Cancer, 1.00E−5 Molar. Here is the method:
as §1

The subject of the next data set is U251. Briefly: NCI in vitro DTP human cell line screen, U251. As to conditions: CNS Cancer, 1.00E−5 Molar. Here is the method:
as §1

A further data set has as its system MALME-3M. The data set can be described thus: NCI in vitro DTP human cell line screen, MALME-3M. As to conditions: Melanoma, 1.00E−5 Molar. The procedure:
as §1

A further data set deals with SK-OV-3. The data set can be described thus: NCI in vitro DTP human cell line screen, SK-OV-3. As to conditions: Ovarian Cancer, 1.00E−5 Molar. Here is the method:
as §1

The test system of another data set is OVCAR-8. Briefly: NCI in vitro DTP human cell line screen, OVCAR-8. As to conditions: Ovarian Cancer, 1.00E−5 Molar. The procedure: as §1
The test system of the next data set is HEL299 fibroblast. The data set can be described thus: MTT assay, HEL299 fibroblast.
Description: as §2

As for `CCCSc1ccc2c(=O)c3ccccc3sc2c1Cl` [No. 3, 4-Chloro-3-(propylthio)-9H-thioxanthen-9-one], the “Growth Percent” value in the data set with OVCAR-3 is recorded as 90.35%; with HS 578-T it was 94.80%; in the data set on MDA-MB-231/ATCC it was 85.71%; with HCT-15 it was 98.58%; with CCRF-CEM, 85.29%; in the data set on IGROV1, 91.28%. The “Growth Percent” value turned out to be 91.53% in the data set with MDA-MB-468; 100.70% in the data set with HCC-2998; 94.79% in the data set with OVCAR-5; 67.20% in the data set on U251; 92.96% with MALME-3M; 104.52% with SK-OV-3. In the data set on OVCAR-8, the “Growth Percent” value is recorded as 83.50%. Also, the viability in data set [1] came out at 88.9 ± 11.1%.
Regarding `O=c1c2ccccc2sc2c(Cl)c(SCc3ccccc3)ccc12` [No. 23, 3-(Benzylthio)-4-chloro-9H-thioxanthen-9-one], the “Growth Percent” value in the data set with OVCAR-3 came out at 76.97%; with HS 578-T, 91.28%; with MDA-MB-231/ATCC, 71.98%; in the data set with HCT-15 it was 82.20%; in the data set with CCRF-CEM it was 59.07%; with IGROV1, 56.63%. The “Growth Percent” value worked out at 73.81% with MDA-MB-468; 101.78% with HCC-2998; 94.34% in the data set on OVCAR-5; 38.89% in the data set on U251; 93.38% in the data set with MALME-3M; 94.39% in the data set with SK-OV-3. Also, the “Growth Percent” value with OVCAR-8 was 82.11%. The viability in [1] (HEL299, normal fibroblast, read-out: cell viabilities of HEL299 cell lines (MTT assay)) was 82.5%. The “cell viabilities of HEL299 cell lines (MTT assay)” value in the data set with HEL299 fibroblast (HEL299, normal fibroblast) was 85.2 ± 5.26%.
With `O=c1c2ccccc2sc2c(Cl)c(SCc3ccc(Cl)cc3)ccc12` [No. 26, 4-Chloro-3-(4-chlorobenzylthio)-9H-thioxanthen-9-one], the “Growth Percent” value with OVCAR-3 is listed as 130.11%; in the data set on HS 578-T, 108.61%; with MDA-MB-231/ATCC, 95.00%; in the data set on HCT-15, 104.80%; with CCRF-CEM, 92.28%; in the data set on IGROV1, 104.47%. The “Growth Percent” value with MDA-MB-468 was 96.96%; in the data set with HCC-2998, 107.66%; in the data set with OVCAR-5 it was 102.23%; with U251, 86.21%; in the data set with MALME-3M, 105.22%; with SK-OV-3 it was 97.10%. Besides, the “Growth Percent” value in the data set on OVCAR-8 is recorded as 86.47%. For the same compound, the viability in data set [1] was determined as 58.7 ± 5.55%.
With `COc1ccc(CSc2ccc3c(=O)c4ccccc4sc3c2Cl)cc1` [No. 27, 4-Chloro-3-(4-methoxybenzylthio)-9H-thioxanthen-9-one], the “Growth Percent” value was found to be 125.16% in the data set on OVCAR-3; 124.03% in the data set on HS 578-T; 96.93% in the data set with MDA-MB-231/ATCC; 104.37% in the data set on HCT-15; 89.83% in the data set with CCRF-CEM; 108.76% with IGROV1. Further, the “Growth Percent” value with MDA-MB-468 came out at 102.80%; with HCC-2998, 105.73%; in the data set on OVCAR-5 it was 103.70%; in the data set with U251 it was 96.42%; in the data set on MALME-3M it was 107.44%; in the data set on SK-OV-3, 107.96%. For the same compound, in the data set with OVCAR-8, the “Growth Percent” value came to 95.58%. Moreover, the viability in data set [1] worked out at 92.4%. In addition, in the data set on HEL299 fibroblast, the “cytotoxicity effect on the normal fibroblast (in words)” value is given as “without the cytotoxicity effect”.

These data come from patent US8410161B2, “Thioxanthone ring system derivatives” (National Defense Medical Center, priority 2010, dated 2013).
